In ChEMBL document CHEMBL1687695, “Thermodynamic and Structural Effects of Macrocyclization as a Constraining Method in Protein-Ligand Interactions” (ACS Med Chem Lett, 2010):
Numbered stars: 1 amine (or outer) side, 2 acyl side, 3 side chain; on linkers, the order of the positions; unused ones are H or OH. Square brackets hold non-standard residues; d marks the D form. Peptide text beside a SMILES is read from it. * marks the point of attachment. pY = N[C@@H](Cc1ccc(OP(=O)(O)O)cc1)C(=O)O; NH(CH2)9CO = O=C(CCCCCCCCCN[*:1])[*:2]; Nonanoyl = CCCCCCCCC(=O)*; Hexanoyl = CCCCCC(=O)*; Ahp = NCCCCCCC(=O)O

Assay: Association constant Ka of the compound
Assay type: physicochemical

Row | SMILES | Ka
1 | CCCCCC(=O)N[C@@H](Cc1ccc(OP(=O)(O)O)cc1)C(=O)N[C@H](C(=O)N[C@@H](CC(N)=O)C(=O)NCC(=O)NC)C(C)C (Hexanoyl-[pY]VNG-NHMe) | 4.1 ×10⁵ /M
2 | CCCCCC(=O)N[C@@H](Cc1ccc(OP(=O)(O)O)cc1)C(=O)N[C@H](C(=O)N[C@@H](CC(N)=O)C(=O)N[C@H](C(=O)NC)C(C)C)C(C)C (Hexanoyl-[pY]VNV-NHMe) | 2.3 ×10⁶ /M
3 | CCCCCC(=O)N[C@@H](Cc1ccc(OP(=O)(O)O)cc1)C(=O)N[C@H](C(=O)N[C@@H](CC(N)=O)C(=O)N[C@H](C(=O)N1CCC[C@H]1C(=O)NC)C(C)C)C(C)C (Hexanoyl-[pY]VNVP-NHMe) | 6.5 ×10⁶ /M
4 | CCCCCCCCC(=O)N[C@@H](Cc1ccc(OP(=O)(O)O)cc1)C(=O)N[C@H](C(=O)N[C@@H](CC(N)=O)C(=O)NCC(=O)NC)C(C)C (Nonanoyl-[pY]VNG-NHMe) | 5.7 ×10⁵ /M
5 | CC(C)[C@@H]1NC(=O)[C@H](Cc2ccc(OP(=O)(O)O)cc2)NC(=O)CCCCCCNC(=O)[C@@H]2CCCN2C(=O)[C@H](C(C)C)NC(=O)[C@H](CC(N)=O)NC1=O (cyclo([Ahp][pY]VNVP)) | 1 ×10⁷ /M

Further lines, results first:

Row | Ka | SMILES
6 | 8.5 ×10⁵ /M | CC(C)[C@@H]1NC(=O)[C@H](Cc2ccc(OP(=O)(O)O)cc2)NC(=O)CCCCCCCCCNC(=O)CNC(=O)[C@H](CC(N)=O)NC1=O (cyclo(G[NH(CH2)9CO][pY]VN))
7 | 4.7 ×10⁴ /M | CC(C)[C@@H]1NC(=O)[C@H](Cc2ccc(OP(=O)(O)O)cc2)NC(=O)CCCCCCNC(=O)CNC(=O)[C@H](CC(N)=O)NC1=O (cyclo([Ahp][pY]VNG))
8 | 2.3 ×10⁶ /M | CC(C)[C@@H]1NC(=O)[C@H](CC(N)=O)NC(=O)[C@H](C(C)C)NC(=O)[C@H](Cc2ccc(OP(=O)(O)O)cc2)NC(=O)CCCCCCNC1=O (cyclo([Ahp][pY]VNV))
